Source: patent publication US20070049564A1 (Wyeth, priority 2005, published 2007)
Converted amounts (≈) assume the structure as drawn. Read-outs that look alike come from different tables or passages of the source.

Key:
S. pneumoniae* GC 4465 = assay: MIC, broth microdilution; settings: Streptococcus pneumoniae
E. coli GC 2203 = assay: MIC, broth microdilution; settings: Escherichia coli
Procedure: (§1) Antimicrobial susceptibility testing. The in vitro activities of the antibiotics are determined by the broth microdilution method as recommended by the National Committee for Clinical Laboratory Standards (NCCLS) (1). Mueller-Hinton II broth (MHBII)(BBL Cockeysville, Md.) is the medium employed in the testing procedures. Microtiter plates containing serial dilutions of each antimicrobial agent are inoculated with each organism to yield the appropriate density (10^5 CFU/ml) in a 100 μl final volume. The plates are incubated for 18-22 hours at 35° C. in ambient air. […] Standard Pharmacological Test Procedures
(§2) Presented in Tables I-XIII are representative compounds of Formula I which were evaluated against a panel of 40 selected gram-positive and gram-negative bacteria strains by pre-incubation in water, mouse serum or human serum. Representative compounds were first incubated in mouse serum for an hour prior to the in vitro testing against a panel of selected gram-positive and gram-negative bacteria strains. All compounds were also pre-incubated in water for an hour prior to testing as control. Representative compounds of Formula I were incubated in human serum prior to MIC determination.

S. pneumoniae+ GC 4465 = assay: MIC, broth microdilution; settings: Streptococcus pneumoniae
S. aureus GC 4536 = assay: MIC, broth microdilution; settings: Staphylococcus aureus
E. coli GC 2234 = assay: MIC, broth microdilution; settings: Escherichia coli
P. aeruginosa GC 2214 = assay: MIC, broth microdilution; settings: Pseudomonas aeruginosa
E. coli GC 2231 = assay: MIC, broth microdilution; settings: Escherichia coli
E. faecalis GC 2267 = assay: MIC, broth microdilution; settings: Enterococcus faecalis
S. aureus GC 6466 = assay: MIC, broth microdilution; settings: Staphylococcus aureus
Procedure: as §1, §2

E. coli GC 4559 = assay: MIC, broth microdilution; settings: Escherichia coli
S. epidermidis GC 4935 = assay: MIC, broth microdilution; settings: Staphylococcus epidermidis
S. aureus GC 2216 = assay: MIC, broth microdilution; settings: Staphylococcus aureus
E. coli GC 6465 = assay: MIC, broth microdilution; settings: Escherichia coli
E. coli GC 2232 = assay: MIC, broth microdilution; settings: Escherichia coli
S. aureus GC 6467 = assay: MIC, broth microdilution; settings: Staphylococcus aureus
Staph. aureus Smith = assay: In vivo activity (oral, iv; ED50) against Staph. aureus Smith in mice
Procedure: Representative examples of compounds of Formula I were tested for the oral efficacy using S. aureus Smith in mice.

E. coli GC 2272 = assay: MIC, broth microdilution; settings: Escherichia coli
S. aureus GC 1131 = assay: MIC, broth microdilution; settings: Staphylococcus aureus
E. coli GC 4560 = assay: MIC, broth microdilution; settings: Escherichia coli
E. faecalis GC 2242 = assay: MIC, broth microdilution; settings: Enterococcus faecalis
[1] = read-out: MINIMAL INHIBITORY CONCENTRATION MIC, Human Serum
[2] = read-out: MINIMAL INHIBITORY CONCENTRATION MIC, Mouse Serum
[3] = read-out: MINIMAL INHIBITORY CONCENTRATION MIC, Water

SMILES: CN(C)c1cc(NC(=O)CN(C(=O)OCOC(=O)C2CCCCC2)C(C)(C)C)c(O)c2c1C[C@H]1C[C@H]3[C@H](N(C)C)C(O)=C(C(N)=O)C(=O)[C@@]3(O)C(O)=C1C2=O [Example 50, ({[(2-{[(5aR,6aS,7S,10aS)-9-(aminocarbonyl)-4,7-bis(dimethylamino)-1,8,10a,11-tetrahydroxy-10,12-dioxo-5,5a,6,6a,7,10,10a,12-octahydrotetracen-2-yl]amino}-2-oxoethyl)(tert-butyl)amino]carbonyl}oxy)methyl cyclohexanecarboxylate]
- MIC (S. pneumoniae* GC 4465; [1]): < 0.06 µg/mL
- MIC (S. pneumoniae* GC 4465; [2]): < 0.06 µg/mL
- MIC (S. pneumoniae* GC 4465; [3]): < 0.06 µg/mL
- MIC (E. coli GC 2203; GC2203, read-out: MINIMAL INHIBITORY CONCENTRATION MIC, Human Serum): 8 µg/mL (≈ 10.4 µM)
- MIC (E. coli GC 2203; GC2203, read-out: MINIMAL INHIBITORY CONCENTRATION MIC, Mouse Serum): 1 µg/mL (≈ 1.3 µM)
- MIC (E. coli GC 2203; GC2203, read-out: MINIMAL INHIBITORY CONCENTRATION MIC, Water): 32 µg/mL (≈ 41.6 µM)
- MIC (S. pneumoniae+ GC 4465; [1]): 0.5 µg/mL (≈ 0.649 µM)
- MIC (S. pneumoniae+ GC 4465; [2]): 0.5 µg/mL (≈ 0.649 µM)
- MIC (S. pneumoniae+ GC 4465; [3]): 0.5 µg/mL (≈ 0.649 µM)
- MIC (S. aureus GC 4536; GC4536, read-out: MINIMAL INHIBITORY CONCENTRATION MIC, Human Serum): 0.25 µg/mL (≈ 0.325 µM)
- MIC (S. aureus GC 4536; GC4536, read-out: MINIMAL INHIBITORY CONCENTRATION MIC, Mouse Serum): 0.25 µg/mL (≈ 0.325 µM)
- MIC (S. aureus GC 4536; GC4536, read-out: MINIMAL INHIBITORY CONCENTRATION MIC, Water): 0.5 µg/mL (≈ 0.649 µM)
- MIC (E. coli GC 2234; GC2234, read-out: MINIMAL INHIBITORY CONCENTRATION MIC, Human Serum): 8 µg/mL (≈ 10.4 µM)
- MIC (E. coli GC 2234; GC2234, read-out: MINIMAL INHIBITORY CONCENTRATION MIC, Mouse Serum): 1 µg/mL (≈ 1.3 µM)
- MIC (E. coli GC 2234; GC2234, read-out: MINIMAL INHIBITORY CONCENTRATION MIC, Water): 64 µg/mL (≈ 83.1 µM)
- MIC (P. aeruginosa GC 2214; GC2214, read-out: MINIMAL INHIBITORY CONCENTRATION MIC, Human Serum): > 64 µg/mL
- MIC (P. aeruginosa GC 2214; GC2214, read-out: MINIMAL INHIBITORY CONCENTRATION MIC, Mouse Serum): 32 µg/mL (≈ 41.6 µM)
- MIC (P. aeruginosa GC 2214; GC2214, read-out: MINIMAL INHIBITORY CONCENTRATION MIC, Water): > 64 µg/mL
- MIC (E. coli GC 2231; GC2231, read-out: MINIMAL INHIBITORY CONCENTRATION MIC, Human Serum): 8 µg/mL (≈ 10.4 µM)
- MIC (E. coli GC 2231; GC2231, read-out: MINIMAL INHIBITORY CONCENTRATION MIC, Mouse Serum): 1 µg/mL (≈ 1.3 µM)
- MIC (E. coli GC 2231; GC2231, read-out: MINIMAL INHIBITORY CONCENTRATION MIC, Water): 64 µg/mL (≈ 83.1 µM)
- MIC (E. faecalis GC 2267; GC2267, read-out: MINIMAL INHIBITORY CONCENTRATION MIC, Human Serum): 2 µg/mL (≈ 2.6 µM)
- MIC (E. faecalis GC 2267; GC2267, read-out: MINIMAL INHIBITORY CONCENTRATION MIC, Mouse Serum): 1 µg/mL (≈ 1.3 µM)
- MIC (E. faecalis GC 2267; GC2267, read-out: MINIMAL INHIBITORY CONCENTRATION MIC, Water): 4 µg/mL (≈ 5.2 µM)
- MIC (S. aureus GC 6466; GC6466, read-out: MINIMAL INHIBITORY CONCENTRATION MIC, Human Serum): 0.25 µg/mL (≈ 0.325 µM)
- MIC (S. aureus GC 6466; GC6466, read-out: MINIMAL INHIBITORY CONCENTRATION MIC, Mouse Serum): 0.25 µg/mL (≈ 0.325 µM)
- MIC (S. aureus GC 6466; GC6466, read-out: MINIMAL INHIBITORY CONCENTRATION MIC, Water): 0.25 µg/mL (≈ 0.325 µM)
- MIC (E. coli GC 4559; GC4559, read-out: MINIMAL INHIBITORY CONCENTRATION MIC, Human Serum): 16 µg/mL (≈ 20.8 µM)
- MIC (E. coli GC 4559; GC4559, read-out: MINIMAL INHIBITORY CONCENTRATION MIC, Mouse Serum): 2 µg/mL (≈ 2.6 µM)
- MIC (E. coli GC 4559; GC4559, read-out: MINIMAL INHIBITORY CONCENTRATION MIC, Water): 64 µg/mL (≈ 83.1 µM)
- MIC (S. epidermidis GC 4935; GC4935, read-out: MINIMAL INHIBITORY CONCENTRATION MIC, Human Serum): 2 µg/mL (≈ 2.6 µM)
- MIC (S. epidermidis GC 4935; GC4935, read-out: MINIMAL INHIBITORY CONCENTRATION MIC, Mouse Serum): 2 µg/mL (≈ 2.6 µM)
- MIC (S. epidermidis GC 4935; GC4935, read-out: MINIMAL INHIBITORY CONCENTRATION MIC, Water): 4 µg/mL (≈ 5.2 µM)
- MIC (S. aureus GC 2216; GC2216, read-out: MINIMAL INHIBITORY CONCENTRATION MIC, Human Serum): 0.5 µg/mL (≈ 0.649 µM)
- MIC (S. aureus GC 2216; GC2216, read-out: MINIMAL INHIBITORY CONCENTRATION MIC, Mouse Serum): 1 µg/mL (≈ 1.3 µM)
- MIC (S. aureus GC 2216; GC2216, read-out: MINIMAL INHIBITORY CONCENTRATION MIC, Water): 2 µg/mL (≈ 2.6 µM)
- MIC (E. coli GC 6465; GC6465, read-out: MINIMAL INHIBITORY CONCENTRATION MIC, Human Serum): 16 µg/mL (≈ 20.8 µM)
- MIC (E. coli GC 6465; GC6465, read-out: MINIMAL INHIBITORY CONCENTRATION MIC, Mouse Serum): 2 µg/mL (≈ 2.6 µM)
- MIC (E. coli GC 6465; GC6465, read-out: MINIMAL INHIBITORY CONCENTRATION MIC, Water): > 64 µg/mL
- MIC (E. coli GC 2232; GC2232, read-out: MINIMAL INHIBITORY CONCENTRATION MIC, Human Serum): 8 µg/mL (≈ 10.4 µM)
- MIC (E. coli GC 2232; GC2232, read-out: MINIMAL INHIBITORY CONCENTRATION MIC, Mouse Serum): 1 µg/mL (≈ 1.3 µM)
- MIC (E. coli GC 2232; GC2232, read-out: MINIMAL INHIBITORY CONCENTRATION MIC, Water): 32 µg/mL (≈ 41.6 µM)
- MIC (S. aureus GC 6467; GC6467, read-out: MINIMAL INHIBITORY CONCENTRATION MIC, Human Serum): 0.25 µg/mL (≈ 0.325 µM)
- MIC (S. aureus GC 6467; GC6467, read-out: MINIMAL INHIBITORY CONCENTRATION MIC, Mouse Serum): 0.25 µg/mL (≈ 0.325 µM)
- MIC (S. aureus GC 6467; GC6467, read-out: MINIMAL INHIBITORY CONCENTRATION MIC, Water): 2 µg/mL (≈ 2.6 µM)
- ED50 (Staph. aureus Smith; Staphylococcus aureus, in Mus musculus, iv, read-out: ED50 SIV (Staph aureus Smith)): 1.65 mg/kg
- ED50 (Staph. aureus Smith; Staphylococcus aureus, in Mus musculus, po, read-out: ED50 SOD (Staph aureus Smith)): 16.9 mg/kg
- ED50 (Staph. aureus Smith; Staphylococcus aureus, in Mus musculus, po, read-out: ED50 Staph Smith SOD): 16.9 mg/kg
- ED50 (Staph. aureus Smith; iv, read-out: ED50 Staph Smith SIV): 1.65 mg/kg
- MIC (E. coli GC 2272; GC2272, read-out: MINIMAL INHIBITORY CONCENTRATION MIC, Human Serum): 4 µg/mL (≈ 5.2 µM)
- MIC (E. coli GC 2272; GC2272, read-out: MINIMAL INHIBITORY CONCENTRATION MIC, Mouse Serum): 1 µg/mL (≈ 1.3 µM)
- MIC (E. coli GC 2272; GC2272, read-out: MINIMAL INHIBITORY CONCENTRATION MIC, Water): 32 µg/mL (≈ 41.6 µM)
- MIC (S. aureus GC 1131; GC1131, read-out: MINIMAL INHIBITORY CONCENTRATION MIC, Human Serum): 0.5 µg/mL (≈ 0.649 µM)
- MIC (S. aureus GC 1131; GC1131, read-out: MINIMAL INHIBITORY CONCENTRATION MIC, Mouse Serum): 0.5 µg/mL (≈ 0.649 µM)
- MIC (S. aureus GC 1131; GC1131, read-out: MINIMAL INHIBITORY CONCENTRATION MIC, Water): 1 µg/mL (≈ 1.3 µM)
- MIC (E. coli GC 4560; GC4560, read-out: MINIMAL INHIBITORY CONCENTRATION MIC, Human Serum): 2 µg/mL (≈ 2.6 µM)
- MIC (E. coli GC 4560; GC4560, read-out: MINIMAL INHIBITORY CONCENTRATION MIC, Mouse Serum): 0.5 µg/mL (≈ 0.649 µM)
- MIC (E. coli GC 4560; GC4560, read-out: MINIMAL INHIBITORY CONCENTRATION MIC, Water): 4 µg/mL (≈ 5.2 µM)
- MIC (E. faecalis GC 2242; GC2242, read-out: MINIMAL INHIBITORY CONCENTRATION MIC, Human Serum): 1 µg/mL (≈ 1.3 µM)
- MIC (E. faecalis GC 2242; GC2242, read-out: MINIMAL INHIBITORY CONCENTRATION MIC, Mouse Serum): 1 µg/mL (≈ 1.3 µM)
- MIC (E. faecalis GC 2242; GC2242, read-out: MINIMAL INHIBITORY CONCENTRATION MIC, Water): 2 µg/mL (≈ 2.6 µM)
